In US20160000762A1, “IMPROVING COGNITIVE FUNCTION” (THE REGENTS OF THE UNIVERSITY OF CALIFORNIA, priority 2013, published 2016):

Key:
[1] = Fear conditioning, wild-type mice; type: in vivo; conditions: 30 mg/kg daily for 2 weeks
Description: Fear conditioning. Before initiating fear-conditioning tests, wild-type mice were injected daily with BTA-EG4 or vehicle for 2 weeks (n=8/group). Mice were subsequently trained by exposure to a conditioning box (context) for 3 min before administering a tone (18 s) and footshock (2 s), which were repeated twice at 1 min intervals. We performed the contextual test 24 h after training by re-exposing the mice to the conditioning context. A measurement of freezing behavior was recorded every minute for 3 min inside of the conditioning box. The cued test was conducted 3 h following the contextual test. Following a 3 min reexposure to the conditioning box, a tone (18 s) was administered and freezing behavior was measured for 1 min.

[2] = system: primary hippocampal neurons; experiment: Synaptic marker immunostaining, primary hippocampal neurons; type: cell-based, Sprague-Dawley rats; conditions: 5 μM, 24 h
Description: Primary neuron culture and immunostaining. Primary hippocampal neurons from E19 Sprague-Dawley rats were cultured at 150 cells/mm^2 as previously described (Pak et al., 2001). Neurons were transfected using Lipofectamine™ 2000 (Invitrogen, Carlsbad, Calif., USA) or calcium phosphate precipitation with GFP+PLL, GFP+APP shRNA, or GFP+APP and treated with BTA-EG4. The following antibodies were used: mouse anti-GFP (Novus Biologicals, 9F9.F9), rabbit anti-GFP (Invitrogen, A11122), rabbit anti-GluR1 (Calbiochem, PC246), mouse anti-GluR2 (BD Pharmagen, 556341), mouse anti-postsynaptic density (PSD)-95 (NeuroMabs, Davis, Calif., USA), mouse anti-Synaptophysin (Sigma Aldrich, s5768), rabbit APP N-terminal (Sigma-Aldrich, A8967), anti-Ras (BD Biosciences, 610001), anti-RasGRF1 (Santa Cruz, C-20; BD Biosciences, 610149), anti-ERK1/2 (Cell Signaling, 4695), anti-p-ERK1/2 (Invitrogen, 36880), anti-CREB (Cell Signaling, D76D11), anti-p-CREB (Millipore, 06-519), and mouse anti-c-Myc (Novus Biologicals, 9E10). Cultured hippocampal neuron images were acquired by LSM 510 laser scanning confocal microscope (Zeiss). Confocal zseries image stacks encompassing entire dendrite segments were analyzed using MetaMorph software (Universal Imaging Corporation, Downington, Pa., USA). […]

[3] = system: RasGRF1, p-ERK, p-CREB; experiment: Ras signaling immunofluorescence, primary hippocampal neurons; type: cell-based, Sprague-Dawley rats; conditions: 5 μM
Description: Primary neuron culture and immunostaining. Primary hippocampal neurons from E19 Sprague-Dawley rats were cultured at 150 cells/mm^2 as previously described (Pak et al., 2001). Neurons were transfected using Lipofectamine™ 2000 (Invitrogen, Carlsbad, Calif., USA) or calcium phosphate precipitation with GFP+PLL, GFP+APP shRNA, or GFP+APP and treated with BTA-EG4. The following antibodies were used: mouse anti-GFP (Novus Biologicals, 9F9.F9), rabbit anti-GFP (Invitrogen, A11122), rabbit anti-GluR1 (Calbiochem, PC246), mouse anti-GluR2 (BD Pharmagen, 556341), mouse anti-postsynaptic density (PSD)-95 (NeuroMabs, Davis, Calif., USA), mouse anti-Synaptophysin (Sigma Aldrich, s5768), rabbit APP N-terminal (Sigma-Aldrich, A8967), anti-Ras (BD Biosciences, 610001), anti-RasGRF1 (Santa Cruz, C-20; BD Biosciences, 610149), anti-ERK1/2 (Cell Signaling, 4695), anti-p-ERK1/2 (Invitrogen, 36880), anti-CREB (Cell Signaling, D76D11), anti-p-CREB (Millipore, 06-519), and mouse anti-c-Myc (Novus Biologicals, 9E10). Cultured hippocampal neuron images were acquired by LSM 510 laser scanning confocal microscope (Zeiss). Confocal zseries image stacks encompassing entire dendrite segments were analyzed using MetaMorph software (Universal Imaging Corporation, Downington, Pa., USA).
(§1) We next investigated the molecular mechanism by which BTA-EG4 may alter dendritic spine formation. Ras, a small GTPase, is involved in dendritic spine formation and synaptic delivery of AMPA receptors (Zhu et al., 2002; Lee et al., 2011). Moreover, abnormal Ras signaling is associated with neurodegenerative disease, causing cognitive impairments and learning deficits (Stornetta and Zhu, 2011). Thus, we initially investigated the effect of BTA-EG4 on Ras signaling by treating primary hippocampal neurons with BTA-EG4 (5 μM) or control for 24 hrs. […] Further, levels of active Ras were elevated following BTA-EG4 treatment (5 μM) in primary cortical neurons (FIG. 7C) and following BTA-EG4 treatment (30 mg/kg) in wild-type mice (FIG. 7D). We also examined whether BTA-EG4 can alter the activity of downstream Ras signaling proteins, including p-ERK and p-CREB.
Since we observed that BTA-EG4 and APP could possibly regulate dendritic spine density through Ras-dependent mechanisms, we then examined whether BTA-EG4 requires APP to modulate Ras signaling. To test this hypothesis, primary hippocampal neurons were transfected with GFP and APP shRNA or GFP and APP, treated with control or BTA-EG4 (5 μM), then immunostained against RasGRF1 (FIGS. 9A, 9B).

[4] = system: Ras; experiment: GST-Raf1-RBD pulldown of active Ras, brain lysates of wild-type mice; type: in vivo; conditions: 30 mg/kg daily for 2 weeks
Description: (§2) GST-pull-down assay. To measure levels of active Ras, brain lysate homogenized with Ral buffer (25 mM Tris-HCl, pH 7.4, 250 mM NaCl, 0.5% NP40, 1.25 mM MgCl2, and 5% glycerol) from APP transgenic, APP knockout, or wild-type mice was incubated with GST-Raf-RBD purified protein coupled with GLUTATHIONE SEPHAROSE™ (Amersham) overnight at 4° C. After 24 hours, pellets were washed with Ral buffer and western blotting was conducted with anti-Ras.
as §1

[5] = system: Ras; experiment: GST-Raf1-RBD pulldown of active Ras, APP knock-out mice; type: in vivo
Description: as §2
Next, we investigated whether BTA-EG4 can alter Ras activity in APP KO mice by injecting control or BTA-EG4 for 2 weeks. […] Further, we examined the effect of BTA-EG4 on downstream Ras signaling in the presence or absence of APP. For this experiment, primary hippocampal neurons were transfected with GFP and APP shRNA or APP, treated with BTA-EG4 or control, and then immunostained against p-ERK or p-CREB.

BTA-EG4
freezing, contextual test [1]: significantly increased | freezing, cued test [1]: significantly increased | number of puncta stained for PSD-95 [2]: increased | number of puncta stained for synaptophysin [2]: increased | levels of RasGRF1 ([3]; 24 h): increased | phosphorylation of CREB ([3]; 24 h): increased | phosphorylation of ERK ([3]; 24 h): increased | total ERK or CREB levels ([3]; 24 h): without altering | RasGRF1 ([3]; knockdown of APP): did not increase | p-CREB ([3]; knockdown of APP): ineffective | p-ERK ([3]; knockdown of APP): ineffective | RasGRF1 ([3]; overexpression of APP): significantly increased | p-CREB ([3]; overexpression of APP): significantly increased | p-ERK ([3]; overexpression of APP): significantly increased | levels of active Ras [4]: elevated | amount of active Ras ([5]; 30 mg/kg i.p., 2 weeks, CTRL (C)=100±1.22%, n=5): 03.2±1.26% | Ras activity ([5]; injected for 2 weeks): did not have altered
